Data reported in ChEMBL document CHEMBL4118053, “Antimicrobial Spirotetronate Metabolites from Marine-Derived Micromonospora harpali SCSIO GJ089” (2017).
In brackets after ≈: the same amount, converted by molar mass.

Key:
Type in all cases: functional
Bacillus subtilis = experiment: Antibacterial activity against Bacillus subtilis BS01 by CLSI method
Bacillus thuringiensis = experiment: Antibacterial activity against Bacillus thuringiensis BT01 by CLSI method
Staphylococcus aureus [1] = experiment: Antibacterial activity against methicillin-resistant Staphylococcus aureus isolate shhs-A1 by CLSI method
Staphylococcus aureus [2] = experiment: Antibacterial activity against Staphylococcus aureus ATCC 29213 by CLSI method
Enterococcus faecalis = experiment: Antibacterial activity against Enterococcus faecalis ATCC 29212 by CLSI method

Row | Structure (SMILES) | MIC (Bacillus subtilis) [µg/mL] | MIC (Bacillus thuringiensis) [µg/mL] | MIC (Staphylococcus aureus [1]) [µg/mL] | MIC (Staphylococcus aureus [2]) [µg/mL] | MIC (Enterococcus faecalis) [µg/mL]
1 | COC(=O)N[C@H]1[C@@H](C)O[C@@H](O[C@H]2C/C=C(\C)[C@@H]3C=C[C@@H]4[C@@H](O[C@H]5C[C@@H](O[C@H]6C[C@@H](O)[C@@H](O[C@@H]7C[C@@H](O)[C@@H](O)[C@H](C)O7)[C@H](C)O6)[C@@H](OC(C)=O)[C@H](C)O5)[C@@H](C)C[C@H](C)[C@H]4[C@]3(C)C(=O)C3=C(O)[C@@]4(CC(/C=C/C(C)=O)=C[C@H](O)[C@H]4/C=C/2C)OC3=O)C[C@]1(C)[N+](=O)[O-] | 0.5 (≈ 0.398 µM) | 0.25 (≈ 0.199 µM) | > 128 | > 128 | 128 (≈ 102 µM)
2 | NC[C@H]1O[C@H](O[C@H]2[C@H](O)[C@@H](O[C@H]3O[C@H](CO)[C@@H](O)[C@H](N)[C@H]3O)[C@H](N)C[C@@H]2N)[C@H](O)[C@@H](O)[C@@H]1O [KANAMYCIN] | 8 (≈ 16.5 µM) | 8 (≈ 16.5 µM) | 64 (≈ 132 µM) | 16 (≈ 33 µM) | 32 (≈ 66 µM)
3 | COC(=O)N[C@H]1[C@@H](C)O[C@@H](O[C@H]2C/C=C(\C)[C@@H]3C=C[C@@H]4[C@@H](O[C@H]5C[C@@H](O[C@H]6CC[C@@H](O[C@@H]7C[C@@H](O)[C@@H](O[C@H]8CC[C@@H](O)[C@H](C)O8)[C@H](C)O7)[C@H](C)O6)[C@@H](OC(C)=O)[C@H](C)O5)[C@@H](C)C[C@H](C)[C@H]4[C@]3(C)C(=O)C3=C(O)[C@@]4(CC(C=O)=C[C@H](O)[C@H]4/C=C/2C)OC3=O)C[C@]1(C)N | 2 (≈ 1.56 µM) | 1 (≈ 0.779 µM) | > 128 | > 128 | > 128
4 | COC(=O)N[C@H]1[C@@H](C)O[C@@H](O[C@H]2C/C=C(\C)[C@@H]3C=C[C@@H]4[C@@H](O[C@H]5C[C@@H](O[C@H]6CC[C@@H](O[C@@H]7C[C@@H](O)[C@@H](O)[C@H](C)O7)[C@H](C)O6)[C@@H](OC(C)=O)[C@H](C)O5)[C@@H](C)C[C@H](C)[C@H]4[C@]3(C)C(=O)C3=C(O)[C@@]4(CC(/C=C/C(C)=O)=C[C@H](O)[C@H]4/C=C/2C)OC3=O)C[C@]1(C)[N+](=O)[O-] | 0.13 (≈ 0.105 µM) | 0.063 (≈ 0.0508 µM) | 32 (≈ 25.8 µM) | 32 (≈ 25.8 µM) | 64 (≈ 51.6 µM)
5 | CN[C@H](CC(C)C)C(=O)N[C@H]1C(=O)N[C@@H](CC(N)=O)C(=O)N[C@H]2C(=O)N[C@H]3C(=O)N[C@H](C(=O)N[C@H](C(=O)O)c4cc(O)cc(O)c4-c4cc3ccc4O)[C@H](O)c3ccc(c(Cl)c3)Oc3cc2cc(c3O[C@@H]2O[C@H](CO)[C@@H](O)[C@H](O)[C@H]2O[C@H]2C[C@](C)(N)[C@H](O)[C@H](C)O2)Oc2ccc(cc2Cl)[C@H]1O [VANCOMYCIN] | 1 (≈ 0.69 µM) | 2 (≈ 1.38 µM) |  |  | 
6 | COC(=O)N[C@H]1[C@@H](C)O[C@@H](O[C@H]2C/C=C(\C)[C@@H]3C=C[C@@H]4[C@@H](O[C@H]5C[C@@H](O[C@H]6CC[C@@H](O[C@@H]7C[C@@H](O)[C@@H](O)[C@H](C)O7)[C@H](C)O6)[C@@H](OC(C)=O)[C@H](C)O5)[C@@H](C)C[C@H](C)[C@H]4[C@]3(C)C(=O)C3=C(O)[C@@]4(CC(/C=C/C(C)=O)=C[C@H](O)[C@H]4/C=C/2C)OC3=O)C[C@]1(C)N | 2 (≈ 1.65 µM) | 1 (≈ 0.827 µM) | > 128 | 128 (≈ 106 µM) | > 128
7 | C/C1=C\[C@@H]2C=C[C@H](C)C[C@]23OC(=O)C(=C3O)C(=O)[C@@]2(C)[C@H]3[C@H](C=C[C@H]2/C(C)=C/C[C@@H]1O)[C@@H](O)[C@](C)(O)C[C@@H]3C | > 128 | > 128 | > 128 | > 128 | > 128
8 | COC(=O)N[C@H]1[C@@H](C)O[C@@H](O[C@H]2C/C=C(\C)[C@@H]3C=C[C@@H]4[C@@H](O[C@H]5C[C@@H](O[C@H]6CC[C@@H](O[C@@H]7C[C@@H](O)[C@@H](O[C@H]8CC[C@@H](O)[C@H](C)O8)[C@H](C)O7)[C@H](C)O6)[C@@H](OC(C)=O)[C@H](C)O5)[C@@H](C)C[C@H](C)[C@H]4[C@]3(C)C(=O)C3=C(O)[C@@]4(CC(C=O)=C[C@H](O)[C@H]4/C=C/2C)OC3=O)C[C@]1(C)[N+](=O)[O-] | 0.03 (≈ 0.0228 µM) | 0.016 (≈ 0.0122 µM) | 32 (≈ 24.4 µM) | 32 (≈ 24.4 µM) | 64 (≈ 48.7 µM)
9 | C/C1=C\[C@@H]2C=C[C@H](C)C[C@]23OC(=O)C(=C3O)C(=O)[C@@]2(C)[C@H]3[C@H](C=C[C@H]2/C(C)=C/C[C@@H]1O)[C@@H](O)[C@@H](C)C[C@@H]3C | 64 (≈ 122 µM) | 64 (≈ 122 µM) | 128 (≈ 245 µM) | 128 (≈ 245 µM) | 128 (≈ 245 µM)
10 | COC(=O)N[C@H]1[C@@H](C)O[C@@H](O[C@H]2C/C=C(\C)[C@@H]3C=C[C@@H]4[C@@H](O[C@H]5C[C@@H](O[C@H]6CC[C@@H](O[C@@H]7C[C@@H](O)[C@@H](O)[C@H](C)O7)[C@H](C)O6)[C@@H](OC(C)=O)[C@H](C)O5)[C@@H](C)C[C@H](C)[C@H]4[C@]3(C)C(=O)C3=C(O)[C@@]4(CC(C=O)=C[C@H](O)[C@H]4/C=C/2C)OC3=O)C[C@]1(C)N | 2 (≈ 1.71 µM) | 1 (≈ 0.855 µM) | > 128 | > 128 | > 128
11 | CC1(C)S[C@@H]2[C@H](NC(=O)[C@H](N)c3ccccc3)C(=O)N2[C@H]1C(=O)O [AMPICILLIN] | 0.25 (≈ 0.715 µM) | 32 (≈ 91.6 µM) | 1 (≈ 2.86 µM) | 2 (≈ 5.72 µM) | 2 (≈ 5.72 µM)
12 | COC(=O)N[C@H]1[C@@H](C)O[C@@H](O[C@H]2C/C=C(\C)[C@@H]3C=C[C@@H]4[C@@H](O[C@H]5C[C@@H](O[C@H]6CC[C@@H](O[C@@H]7C[C@@H](O)[C@@H](O[C@H]8CC[C@@H](O)[C@H](C)O8)[C@H](C)O7)[C@H](C)O6)[C@@H](OC(C)=O)[C@H](C)O5)[C@@H](C)C[C@H](C)[C@H]4[C@]3(C)C(=O)C3=C(O)[C@@]4(CC(/C=C/C(C)=O)=C[C@H](O)[C@H]4/C=C/2C)OC3=O)C[C@]1(C)[N+](=O)[O-] | 0.03 (≈ 0.0222 µM) | 0.016 (≈ 0.0118 µM) | 32 (≈ 23.6 µM) | 32 (≈ 23.6 µM) | 64 (≈ 47.3 µM)
13 | COC(=O)N[C@H]1[C@@H](C)O[C@@H](O[C@H]2C/C=C(\C)[C@@H]3C=C[C@@H]4[C@@H](O[C@H]5C[C@@H](O[C@H]6C[C@@H](O)[C@@H](O[C@@H]7C[C@@H](O)[C@@H](O)[C@H](C)O7)[C@H](C)O6)[C@@H](OC(C)=O)[C@H](C)O5)[C@@H](C)C[C@H](C)[C@H]4[C@]3(C)C(=O)C3=C(O)[C@@]4(CC(/C=C/C(C)=O)=C[C@H](O)[C@H]4/C=C/2C)OC3=O)C[C@]1(C)N | 8 (≈ 6.53 µM) | 4 (≈ 3.26 µM) | > 128 | > 128 | > 128
14 | COC(=O)N[C@H]1[C@@H](C)O[C@@H](O[C@H]2C/C=C(\C)[C@@H]3C=C[C@@H]4[C@@H](O[C@H]5C[C@@H](O[C@H]6CC[C@@H](O[C@@H]7C[C@@H](O)[C@@H](O)[C@H](C)O7)[C@H](C)O6)[C@@H](OC(C)=O)[C@H](C)O5)[C@@H](C)C[C@H](C)[C@H]4[C@]3(C)C(=O)C3=C(O)[C@@]4(CC(C=O)=C[C@H](O)[C@H]4/C=C/2C)OC3=O)C[C@]1(C)[N+](=O)[O-] | 0.063 (≈ 0.0525 µM) | 0.063 (≈ 0.0525 µM) | 32 (≈ 26.7 µM) | 32 (≈ 26.7 µM) | 64 (≈ 53.4 µM)
15 | COC(=O)N[C@H]1[C@@H](C)O[C@@H](O[C@H]2C/C=C(\C)[C@@H]3C=C[C@@H]4[C@@H](O[C@H]5C[C@@H](O[C@H]6CC[C@@H](O[C@@H]7C[C@@H](O)[C@@H](O[C@H]8CC[C@@H](O)[C@H](C)O8)[C@H](C)O7)[C@H](C)O6)[C@@H](OC(C)=O)[C@H](C)O5)[C@@H](C)C[C@H](C)[C@H]4[C@]3(C)C(=O)C3=C(O)[C@@]4(CC(/C=C/C(C)=O)=C[C@H](O)[C@H]4/C=C/2C)OC3=O)C[C@]1(C)N | 2 (≈ 1.51 µM) | 1 (≈ 0.756 µM) | > 128 | > 128 | > 128
